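Each compound was tested at five concentrations against cells in 96-well plates for 48 hours. At the GI50, growth is halved.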 Activity calls are given as the source filed them. Rule as the data show it: active = GI50 up to about 1.1 µM and inactive = higher. A value given as a limit tells only on which side of the number the result lay.

Test systems include UACC-62; COLO 205; NCI-H522; A498; NCI-H460; SK-MEL-5; SN12C; SF-539; HL-60; SK-MEL-2; RPMI-8226; U-251; HT-29; Malme-3M; NCI/ADR-RES; SR; A549; UO-31; HCC 2998; SNB-75.
Common to all, as to assay: DTP human tumour cell line panel, 48 h

On to `c1ccc(-c2sc(-c3ccccc3)c3c2C2CCC3C2)cc1`, for which the GI50 was 33.8 µM (inactive) in the experiment with UACC-62; 22.9 µM (inactive) in the experiment on COLO 205; 23.1 µM (inactive) in the experiment on NCI-H522; 53.3 µM (inactive) with A498; 28.9 µM (inactive) in the experiment with NCI-H460; 20 µM (inactive) in the experiment with SK-MEL-5. Also, the GI50 in the experiment on SN12C is 45.3 µM (inactive); in the experiment with SF-539, 26 µM (inactive); with HL-60, 37.5 µM (inactive); with SK-MEL-2, 19.2 µM (inactive); in the experiment with RPMI-8226, 16.1 µM (inactive); in the experiment on U-251 it was 38.2 µM (inactive). Besides, the GI50 in the experiment on HT-29 is 18.6 µM (inactive); in the experiment on Malme-3M, 31.6 µM (inactive); with NCI/ADR-RES it was 29.8 µM (inactive); in the experiment with SR, 17.4 µM (inactive); in the experiment with A549, 28.6 µM (inactive); with UO-31 it was 16 µM (inactive).

Take `CC1(c2ccc(F)cc2)CC(c2ccc(F)cc2)=C(C#N)C(=C(C#N)C#N)N1` (stereo not given): the GI50 in the experiment with HCC 2998 was 14.5 µM (inactive); in the experiment on UACC-62 it was 14.3 µM (inactive); in the experiment on SNB-75 it was 19.8 µM (inactive); with COLO 205, 5.56 µM (inactive); in the experiment on A498, 19.6 µM (inactive); in the experiment on NCI-H460, 18 µM (inactive). Besides, the GI50 is 14.1 µM (inactive) with SK-MEL-5; 16.7 µM (inactive) in the experiment with SN12C; 25.7 µM (inactive) in the experiment with SF-539; 6.31 µM (inactive) with HL-60; 16 µM (inactive) in the experiment on SK-MEL-2; 5.55 µM (inactive) in the experiment on RPMI-8226. For the same molecule, the GI50 was 16.6 µM (inactive) in the experiment with U-251; 15.4 µM (inactive) in the experiment with HT-29; 18.7 µM (inactive) in the experiment on Malme-3M; 20.5 µM (inactive) in the experiment with NCI/ADR-RES; 14.9 µM (inactive) in the experiment with SR; 19.1 µM (inactive) in the experiment with A549. Besides, in the experiment with UO-31, the GI50 is 17.1 µM (inactive).

Take `CCN1CCCCC(=N\O)/C(=N/O)CCCC1`: the GI50 with UACC-62, in the experiment with SNB-75, with COLO 205, with NCI-H522, in the experiment on A498 and in the experiment with NCI-H460 was > 100 µM (inactive) in each case. In addition, the GI50 in the experiment on SK-MEL-5, in the experiment with SN12C, with SF-539, in the experiment with HL-60, in the experiment on SK-MEL-2 and in the experiment on RPMI-8226 was > 100 µM (inactive) throughout. Also, the GI50 in the experiment with U-251, in the experiment with HT-29, in the experiment with Malme-3M, in the experiment with NCI/ADR-RES, in the experiment on SR and in the experiment on A549 was > 100 µM (inactive) each time. The GI50 with UO-31 was > 100 µM (inactive).

For `c1csc(-c2ccc(-c3ccc(-c4ccc(-c5cccs5)s4)s3)s2)c1`, the GI50 in the experiment on HCC 2998, with UACC-62, with SNB-75, in the experiment on COLO 205, with A498 and in the experiment on NCI-H460 was > 100 µM (inactive) throughout. Besides, the GI50 is > 100 µM (inactive) in the experiment on SK-MEL-5; > 100 µM (inactive) in the experiment with SN12C; > 100 µM (inactive) in the experiment with SF-539; 14.8 µM (inactive) in the experiment with HL-60; > 100 µM (inactive) in the experiment with RPMI-8226; > 100 µM (inactive) in the experiment with U-251. The GI50 was > 100 µM (inactive) in the experiment with HT-29, > 100 µM (inactive) in the experiment with NCI/ADR-RES, 35.7 µM (inactive) in the experiment on SR and > 100 µM (inactive) in the experiment on UO-31.

On to `CSc1nn(C)cc2nc(C)nc1-2`, for which the GI50 with UACC-62, with SNB-75, in the experiment with COLO 205, in the experiment on A498, in the experiment on NCI-H460 and in the experiment on SK-MEL-5 was > 100 µM (inactive) in each case. Moreover, the GI50 in the experiment on SN12C, in the experiment on SF-539, with HL-60, in the experiment with SK-MEL-2, in the experiment on RPMI-8226 and in the experiment with U-251 was > 100 µM (inactive) each time. Moreover, the GI50 in the experiment with HT-29, in the experiment with NCI/ADR-RES, in the experiment on SR, in the experiment on A549 and with UO-31 was > 100 µM (inactive) in each case.

Consider `CC(C)(C)c1cc(C(C)(C)C)c(SSc2c(C(C)(C)C)cc(C(C)(C)C)c(O)c2O)c(O)c1O`, for which the GI50 with UACC-62 was 5.7 µM (inactive); in the experiment on SNB-75, 14.8 µM (inactive); in the experiment on COLO 205 it was 11.5 µM (inactive); in the experiment with NCI-H522 it was 3.92 µM (inactive); with A498, 14 µM (inactive); with NCI-H460 it was 3.89 µM (inactive). Further, the GI50 in the experiment with SK-MEL-5 is 11.7 µM (inactive); in the experiment with SN12C it was 10.9 µM (inactive); with HL-60 it was 3.46 µM (inactive); in the experiment with SK-MEL-2, 14.4 µM (inactive); in the experiment on RPMI-8226 it was 9.29 µM (inactive); in the experiment on U-251, 10.5 µM (inactive). Moreover, the GI50 is 13.2 µM (inactive) in the experiment with HT-29; 21.4 µM (inactive) in the experiment on Malme-3M; 19.1 µM (inactive) with NCI/ADR-RES; 2.94 µM (inactive) with SR; 6.75 µM (inactive) with A549; 6.18 µM (inactive) with UO-31.

For the molecule `O=C(O)c1ccc(Nc2nc3ccccc3nc2-c2cccs2)cc1`, the GI50 in the experiment with HCC 2998 is > 100 µM (inactive); in the experiment on UACC-62, 65.5 µM (inactive); in the experiment on SNB-75, 66.1 µM (inactive); in the experiment with COLO 205, > 100 µM (inactive); in the experiment with NCI-H522, 91.4 µM (inactive); with A498, 47 µM (inactive). Moreover, the GI50 is 71 µM (inactive) in the experiment on NCI-H460; > 100 µM (inactive) with SK-MEL-5; > 100 µM (inactive) in the experiment with SN12C; > 100 µM (inactive) in the experiment with SF-539; > 100 µM (inactive) in the experiment with HL-60; 68.1 µM (inactive) in the experiment with RPMI-8226. Besides, the GI50 with U-251 was 95.9 µM (inactive); in the experiment with HT-29 it was 66.4 µM (inactive); in the experiment on Malme-3M, 60.3 µM (inactive); in the experiment with NCI/ADR-RES, 39.1 µM (inactive); in the experiment with SR, 65.9 µM (inactive); with A549, 44.2 µM (inactive). In the experiment on UO-31, the GI50 is 63.5 µM (inactive).

For `CCOC(=O)c1cc(C)nc2c1c(=O)n(-c1ccccc1)c(=O)n2CCCCN1CCN(c2ccccc2)CC1`, the GI50 in the experiment with HCC 2998 is 41.1 µM (inactive); in the experiment on UACC-62, 70.3 µM (inactive); in the experiment on SNB-75, > 100 µM (inactive); in the experiment on COLO 205, 60 µM (inactive); in the experiment on NCI-H522, 87.1 µM (inactive); in the experiment with A498 it was 27.6 µM (inactive). Also, the GI50 in the experiment on SK-MEL-5 is 38.6 µM (inactive); in the experiment on SN12C, 49.9 µM (inactive); in the experiment with HL-60, 27 µM (inactive); with SK-MEL-2 it was 64.9 µM (inactive); in the experiment with RPMI-8226, 15.7 µM (inactive); in the experiment with U-251, > 100 µM (inactive). Further, the GI50 in the experiment on HT-29 is 36.6 µM (inactive); with Malme-3M, > 100 µM (inactive); with NCI/ADR-RES, > 100 µM (inactive); with SR, 19 µM (inactive); with A549 it was > 100 µM (inactive); in the experiment with UO-31, 6.17 µM (inactive).

On to `CCOC(=O)C1(C(=O)OCC)C[C@@H](C)[C@@H](O)C1`, for which the GI50 in the experiment on UACC-62 was > 100 µM (inactive); in the experiment with SNB-75, 75.7 µM (inactive); in the experiment on COLO 205, > 100 µM (inactive); in the experiment with NCI-H522, > 100 µM (inactive); in the experiment with A498, > 100 µM (inactive); in the experiment with NCI-H460, > 100 µM (inactive). The GI50 with SK-MEL-5 was > 100 µM (inactive); in the experiment on SN12C it was > 100 µM (inactive); in the experiment on SF-539, > 100 µM (inactive); in the experiment with HL-60, 89.9 µM (inactive); with SK-MEL-2, > 100 µM (inactive); in the experiment on RPMI-8226 it was > 100 µM (inactive). Also, the GI50 in the experiment with U-251 was > 100 µM (inactive); in the experiment with HT-29, > 100 µM (inactive); with Malme-3M it was 72.1 µM (inactive); with NCI/ADR-RES, > 100 µM (inactive); in the experiment with SR, > 100 µM (inactive); in the experiment with A549, > 100 µM (inactive). In addition, in the experiment with UO-31, the GI50 was > 100 µM (inactive).

`CSC1=N/C(=C\c2ccco2)C(=O)N1CN1CCOCC1`: the GI50 in the experiment with HCC 2998 is 25.7 µM (inactive); with UACC-62, 44.6 µM (inactive); in the experiment with SNB-75, > 100 µM (inactive); with COLO 205, 38.5 µM (inactive); in the experiment on NCI-H522 it was > 100 µM (inactive); in the experiment with A498, > 60.1 µM (inactive). Moreover, the GI50 in the experiment on NCI-H460 was 13.9 µM (inactive); with SK-MEL-5 it was 41.1 µM (inactive); in the experiment with SN12C, > 52.8 µM (inactive); in the experiment with SF-539 it was 17.2 µM (inactive); in the experiment on SK-MEL-2, > 91.4 µM (inactive); with RPMI-8226, 32.7 µM (inactive). Besides, the GI50 is > 100 µM (inactive) with U-251; 33.6 µM (inactive) in the experiment on HT-29; > 46.1 µM (inactive) with Malme-3M; > 61.8 µM (inactive) in the experiment with NCI/ADR-RES; 41.3 µM (inactive) in the experiment on SR; > 100 µM (inactive) in the experiment on A549. Also, in the experiment with UO-31, the GI50 was > 69.8 µM (inactive).

For the molecule `O=C(O)C[n+]1cn(NC(=O)Cc2ccccc2)cn1`, the GI50 is > 10 µM (inactive) in the experiment with HCC 2998; 0.664 µM (active) with UACC-62; > 10 µM (inactive) with SNB-75; > 10 µM (inactive) with COLO 205; > 10 µM (inactive) in the experiment with NCI-H522; > 10 µM (inactive) in the experiment on A498. The GI50 in the experiment with NCI-H460 is > 10 µM (inactive); with SK-MEL-5, > 10 µM (inactive); in the experiment on SN12C, > 10 µM (inactive); in the experiment on SF-539 it was > 10 µM (inactive); with RPMI-8226, 0.501 µM (active); with U-251, > 10 µM (inactive). Also, the GI50 in the experiment on HT-29, with Malme-3M, with NCI/ADR-RES, with SR, with A549 and in the experiment on UO-31 was > 10 µM (inactive) throughout.

A word on the GI50: it is the concentration that inhibits growth by half.

The record behind these values is ChEMBL document CHEMBL1201862, “PubChem BioAssay data set” (2004).
